Data as given in patent EP2759295A1, “Foam cell specific Liver X Receptor (LXR) alpha agonist, SIRT1 inhibitors as well as p300 inhibitors as pharmaceutically active agents” (Max-Planck-Gesellschaft zur Förderung der Wissenschaften …, priority 2013, dated 2014).
Where two headings read alike, the source gives them in different places.

Key:
SIRT1 = molecular target: T1, SIRT1 (Homo sapiens, UniProt Q96EB6); assay: MALDI-TOF MS deacetylation assay; format: biochemical
T1 construct: purchased Biomol International, Inc. / Enzo Life Sciences / BlueSky BioTech
T1 sequence (Q96EB6 1-747): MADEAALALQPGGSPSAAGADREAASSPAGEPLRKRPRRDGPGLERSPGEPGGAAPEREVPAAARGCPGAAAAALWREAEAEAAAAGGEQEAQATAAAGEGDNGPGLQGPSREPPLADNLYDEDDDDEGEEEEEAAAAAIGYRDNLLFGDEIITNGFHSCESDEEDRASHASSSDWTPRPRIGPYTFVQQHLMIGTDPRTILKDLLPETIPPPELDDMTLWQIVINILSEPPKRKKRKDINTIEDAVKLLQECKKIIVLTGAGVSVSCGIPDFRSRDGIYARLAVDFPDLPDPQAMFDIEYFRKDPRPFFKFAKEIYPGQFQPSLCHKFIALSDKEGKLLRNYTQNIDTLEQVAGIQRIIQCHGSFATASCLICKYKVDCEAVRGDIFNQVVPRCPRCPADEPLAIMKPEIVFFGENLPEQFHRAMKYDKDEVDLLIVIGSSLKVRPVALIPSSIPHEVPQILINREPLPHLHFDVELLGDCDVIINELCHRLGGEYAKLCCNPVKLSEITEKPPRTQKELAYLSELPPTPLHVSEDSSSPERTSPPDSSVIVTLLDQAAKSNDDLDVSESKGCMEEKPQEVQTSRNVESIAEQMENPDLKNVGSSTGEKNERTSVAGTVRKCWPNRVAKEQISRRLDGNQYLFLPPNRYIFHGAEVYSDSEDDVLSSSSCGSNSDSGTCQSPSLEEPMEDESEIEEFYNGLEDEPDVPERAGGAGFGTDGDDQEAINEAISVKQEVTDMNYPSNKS
Method: The assay was performed in a 20 µL reaction. 0.5 µM acetylated peptide and 120 µM NAD^+ in reaction buffer (50 mM Tris-acetate (pH 8), 137 mM NaCl, 2.7 mM KCI, 1 mM MgCl2, 5 mM DTT, 0.05 % BSA) were mixed with compound or DMSO (VC). Reactions were initiated by adding 10 nM of SIRT1. After incubation for 30 min at 37°C, reactions were stopped by formic acid and nicotinamide (f.c. 1% and 5 mM, respectively). Reactions were performed with histone H4 peptide and 1% DMSO unless stated otherwise. […]
Acetylated and deacetylated peptides were mixed at different ratios in the respective buffer including stop solution and reaction components except the enzyme. Purification, preparation and MS detection were conducted in parallel to reaction samples. CCs were generated for IC50 value determination but not for the screening.
Peptides were purified by Oasis HLB µElution Plates using a vacuum manifold [S. Sauer et al. J Chromatogr A (2004), 1049, 9-16]. Plate columns were conditioned by 70% ACN and equilibrated with 0.1% TFA. Samples were loaded, desalted by 0.1 % TFA and H2O and eluted in 70% ACN.
For ultra thin layer (UTL), supernatant of saturated CHCA in ACN / H2O (2:1) and 0.1% TFA. was mixed with isopropanol (1:3) and was spread on a ground steel target. After solvent evaporated excess of CHCA was removed from target surface with a tissue [D. Fenyo et al. J Vis Exp (2007), 192]. The matrix used for sample preparation contained saturated CHCA in ACN / 0.1% TFA (1:2) or ACN / H2O (1:2) depending on peptide size [S. L. Cohen et al. Anal Chem (1996), 68, 31-37]. HLB eluted samples and matrix were mixed (1:4) and spotted on the UTL.
Samples were measured automatically (AutoXecute software, Bruker Daltonik GmbH) using an ultraflex II MALDI-TOF mass spectrometer (Bruker Daltonik GmbH) in positive ion reflector mode. Laser power and detector gain were adjusted prior to every automatic run, which were performed in random walk movement.
For assay optimization and IC50 determination, 1000 shots were accumulated in 100 satisfactory shot steps (fuzzy control). At least one peak within a defined mass range had to fulfill the following criteria for the spectra to be accumulated: Absolute (min.) intensity: 800; S/N: 15; peak width: 0.2.
A script (Bruker Daltonik GmbH) was employed to analyze peptide peaks in a batch process (flexAnalysis software, Version 3.0, Bruker Daltonik GmbH). Percentage of de-/acetylation were calculated using the sum of the first four monoisotopic peak intensities. CC was generated by plotting experimental vs. calculated peptide acetylation. Measured sample values were interpolated with CC to determine de-/acetylation values (GraphPad Prism). When no CC was created, peak intensity ratios were generated. Verified single NP screening hits had to pass a peak ratio of ≤ 0.1 (deac/ac).
As IC50 values were not gained at initial velocity conditions, values were corrected by a conversion factor according to Wu et al. (Table 5) [G. Wu et al. J Biomol Screen (2003), 8, 694-700].

HepG2 cells = assay: Western-Blot analysis of p53 (Lys382) acetylation in HepG2 cells; format: cell-based, human; settings: 30 µM, 16 hours, 20 µM Etoposide
Method: HepG2 cells were seeded in 6-well plates (2.5 x 10^5 cells/well). 48 h later cells were treated with 20 µM Etoposide to induce p53 acetylation and directly afterwards with NP 1 or DMSO (VC) for 16 h. Cells were harvested and separated into cytosolic and nuclear fractions (NE-PER Nuclear and Cytoplasmic Extraction Reagents). Samples were denatured and SDS-PAGE was performed using NuPAGE Novex 4-12% Bis-Tris Gels. Proteins were blotted on nitrocellulose Hybond ECL membrane. Primary antibodies used were β-actin, p53 and acetyl-p53 (Lys382). Secondary antibodies were HRP-conjugated goat anti-rabbit IgG-HRP and goat anti-mouse IgG-HRP. Detection was performed with Western Lightning Plus-ECL solution. Membranes were stripped with Restore Plus Western Blot Stripping Buffer for 15 min.
Densitometry was performed in GelAnalyzer 2010a, which is a software tool to quantitatively measure the optical density. It provides accurate Western-Blot analysis and helps to detect differences which are not visible by the naked eye. Log(p53-Ac/p53-total) was calculated for every sample and statistical analysis was performed.

[1] = molecular target: T2, LXRα ligand binding domain (LBD) (Homo sapiens, UniProt Q13133); assay: dual luciferase reporter gene assay with LXRα ligand binding domain in HEK-293 cells; format: cell-based
T2 construct: expressed in transfected cells; host or cells: HEK-293
T2 sequence (Q13133 164-447): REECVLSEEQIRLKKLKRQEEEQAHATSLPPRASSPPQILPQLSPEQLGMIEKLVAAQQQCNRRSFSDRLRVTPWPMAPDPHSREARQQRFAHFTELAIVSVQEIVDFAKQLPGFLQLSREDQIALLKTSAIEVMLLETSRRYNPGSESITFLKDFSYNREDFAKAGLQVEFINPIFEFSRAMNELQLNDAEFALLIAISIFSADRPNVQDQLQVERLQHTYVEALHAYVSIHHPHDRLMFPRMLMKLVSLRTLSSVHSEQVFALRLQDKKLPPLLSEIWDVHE
Method: The ligand binding domain (LBD) of LXRα (amino acids 164 to 447) or LXRβ (amino acids 154 to 461) was cloned into pBIND [Renilla/Amp] vector (Promega). Selection and amplification were performed in E-coli cells. Purification of the plasmids was performed with a plasmid purification kit (Qiagen). For transfection HEK-293 cells were plated in 96-well plates (TPP) at a density of 3.5 x 10^4 cells/well for 24 h. To investigate the ligand binding on LXRα ligand binding domain, 0.04 ng of renilla luciferase coding plasmide pGL4.75 (Promega), 0.04 ng of LXRα-LBD/GAL4-DBD plasmide and 80 ng of firefly luciferase coding plasmide pGL4.31 (Promega) were used in a total volume of 200 µL for each well. In LXRβ binding assay 40 ng of LXRβ-LBD/GAL4-DBD plasmide were applied in each transfection mix. Transfection was carried out for 4 h with Lipofectamine 2000 Transfection Reagent (Invitrogen) in Opti-MEM medium (Invitrogen). Ligand treatment was performed at different concentrations for 24 h. For lysis and detection dual-luciferase reporter gene assay system (Promega) and POLARstar Omega (BMG LABTECH) were used.

THP-1 macrophages [2] = assay: CellTiter-Glo viability assay in THP-1 macrophages; format: cell-based, human
Method: (§1) For generating macrophages differentiation was induced by 10^-8 M Phorbol 12-myristate 13-acetate (PMA) (Sigma-Aldrich) for 48 h. Ligand treatment of macrophages was performed for further 24 h. To induce foam cell formation macrophages were treated for additional 48 h with 100 µg/mL modified human oxidized low density lipoprotein (oxLDL) obtained from Source BioScience (RP-048). Ligand treatment was performed simultaneously with foam cell formation. Cholesterol loading and treatment was controlled with Oil Red O staining (Alfa Aeser). To investigate ligand induced effects on cell proliferation of THP-1 macrophages CellTiter-Glo Luminescent Cell Viability Assay (Promega) was utilized.

THP-1 macrophages [3] = assay: qPCR gene expression of LXRα target genes in THP-1 macrophages; format: cell-based, human; settings: 10 µM
Method: as §1
(§2) Total RNA isolation and purification was performed by using the RNeasy Mini Kit (QIAGEN) and RNase-Free DNase Set (QIAGEN). cDNA was generated by reverse transcription using the High Capacity cDNA Reverse Transcription Kit (Applied Biosystems). Gene expression was quantified using the SYBR Green PCR Master Mix (Applied Biosystems) and ABI 7900HT Fast Real Time PCR System (Applied Biosystems). In each reaction 0.8 ng/µL cDNA and 0.2 µM primers were used. Gene expression was calculated with the ΔΔCt-method. β-Actin was used for normalisation.

foam cells [4] = assay: siRNA-mediated LXRα/β knockdown in foam cells with qPCR; format: cell-based, human; settings: 10 µM ligand for 24 h
Method: Target specificity of ligand-dependent gene expression effects was investigated in siRNA-mediated LXRα and β-knockdown foam cells with subsequent qPCR or microarray analysis. Therefore, 2 x 10^5 THP-1 cells/well were differentiated in 24-well plate and induced to foam cells prior to knockdown as described above. Foam cells were transfected using TransIT-TKO transfection reagent (Mirus Bio), for combined knockdown with 15 nM LXRα Silencer Validated siRNA (Ambion, ID 5458) and 15 nM LXRβ Silencer Select Validated siRNA (Ambion, ID s14684) and with 30 nM LXRα or LXRβ for individual knockdowns, respectively. As control we used 30 nM Silencer Select Negative Control #1 (Ambion). Transfection was carried out for 48 h and followed by treatment with 10 µM ligand or vehicle control for 24 h.
as §2

macrophages [5] = assay: microarray genome-wide gene expression and GSEA in macrophages; format: cell-based, human; settings: 10 µM
Method: Microarray analyses were performed according to instructions of Illumina's TotalPrep RNA Amplification Kit followed by hybridisation on HumanHT-12 v3 or HumanHT-12 v4 Expression BeadChips (illumina). Data analysis was performed with GenomeStudio V2011.1 (illumina). Differential expression analysis was performed on background-subtracted data with cubic spline normalization and Benjamini-Hochberg FDR correction. Significant data was considered to have a detection p-value of ≤ 0.01 and differential expression p-value of ≤ 0.05 according to Illumina's t-test error model. […] Bead array data were validated by quantitative real-time PCR. The Gene Distance Matrix was conducted in Euclidean space using the MeV 4.3 software tool [Saeed A.I. et al. Biotechniques (2003), 34, 374-378]. Gene Set Enrichment Analysis (GSEA) was performed as described elsewhere [Subramanian A. et al. Proc. Natl. Acad. Sci. (2005) 102, 15545-15550] with the following parameters: 1000 gene set permutations, weighted enrichment statistics, minimal gene set size of 5, and signal-to-noise metric. Enrichment of pathways was tested using the Reactome (v3.0) and the KEGG (v3.0) database from the Molecular Signature Database (MSigDB). Heatmaps were carried out with Mayday 2.8 [Battke F. et al. BMC Bioinformatics (2012), 11, 121]. […]

foam cells [6] = assay: microarray genome-wide gene expression and GSEA in foam cells; format: cell-based, human; settings: 10 µM
Method: Microarray analyses were performed according to instructions of Illumina's TotalPrep RNA Amplification Kit followed by hybridisation on HumanHT-12 v3 or HumanHT-12 v4 Expression BeadChips (illumina). Data analysis was performed with GenomeStudio […].1 (illumina). Differential expression analysis was performed on background-subtracted data with cubic spline normalization and Benjamini-Hochberg FDR correction. […] Gene expression data were submitted in MIAME-compliant form to the NCBI Gene Expression Omnibus database (GSE39079). Bead array data were validated by quantitative real-time PCR. The Gene Distance Matrix was conducted in Euclidean space using the MeV 4.3 software tool [[…]. et al. Biotechniques (2003), 34, 374-378]. Gene Set Enrichment Analysis (GSEA) was performed as described elsewhere [Subramanian A. et al. Proc. Natl. Acad. Sci. […] Enrichment of pathways was tested using the Reactome (v3.0) and the KEGG (v3.0) database from the Molecular Signature Database (MSigDB). Heatmaps were carried out with […]. et al. BMC Bioinformatics (2012), 11, 121]. For presentation of treatment effects in the heatmap, the pathway normalized enrichment score (NES) was adjusted with the appropriate FDR as follows: adjustedNES = (1-FDR) x NES.

foam cells [7] = assay: cholesterol content in foam cells (Amplex Red Cholesterol Assay); format: cell-based, human; settings: 10 µM, 48 h
Method: (§3) THP-1 monocytes were plated out into 24-well plates (Nunc) at a density of 2 x 10^5 cells/well. After differentiation and treatment cells were lysed with 100 µL lysis buffer (PBS, 0.25 M NaCl, 1% Triton X-100). Total and free cholesterol were determined using the colorimetric enzymatic Amplex Red Cholesterol Assay Kit (Invitrogen). Triglycerides were quantified by Triglyceride Assay Kit (BioVision). For normalisation protein content was determined with Pierce 660 nm Protein Assay Reagent (Thermo Scientific).

foam cells [8] = assay: triglyceride content in foam cells (Triglyceride Assay Kit); format: cell-based, human; settings: 10 µM, 48 h
Method: as §3

macrophages [9] = assay: triglyceride content in macrophages (Triglyceride Assay Kit); format: cell-based, human; settings: 10 µM, 48 h
Method: as §3

| IC50 (SIRT1; Table 3, corrected values (see Table 5), read-out: IC50 values) | IC50 (SIRT1; corrected by conversion factor according to Wu et al., read-out: Corrected IC50) | IC50 (SIRT1; uncorrected, not at initial velocity conditions, read-out: Obtained IC50') | Efficacy ([1]; +DMSO, reporter gene transcription vs. T09) | SMILES | p53 acetylation in the nuclear fraction (HepG2 cells) | specificity LXRα vs. LXRβ ([1]; reporter-gene assays with LXRα and LXRβ LBD) | no cytotoxic effects / no reduction of cellular viability up to (THP-1 macrophages [2]) | expression of LXRα target genes (LXRα, SREBF1, ABCA1, APOE) (THP-1 macrophages [3]) | gene expression of LXRα and ABCA1 after LXRα/β knockdown (foam cells [4]) | expression of genes involved in lipid metabolism processes (macrophages [5]) | Lipid metabolism processes (gene set enrichment) (foam cells [6]) | triacylglyceride biosynthesis (transcriptional regulation) (foam cells [6]) | total and esterified cholesterol content (foam cells [7]) | triglyceride levels (foam cells [8]) | triglyceride level (macrophages [9]) |
| --- | --- | --- | --- | --- | --- | --- | --- | --- | --- | --- | --- | --- | --- | --- | --- |
| 9.7 ± 0.7 µM | 9.7 ± 0.7 µM | 13 ± 1 µM |  | COc1cc(-c2ccc(O)cc2)c(OC)c(O)c1C1=CC(=O)OC1CC(=O)O (stereo not drawn) [NP 1, 2-(3-(3,4'-dihydroxy-2,5-dimethoxybiphenyl-4-yl)-5-oxo-2,5-dihydrofuran-2-yl)acetic acid] | significant increase of p53 acetylation |  |  |  |  |  |  |  |  |  |  |
|  |  |  | 100% | O=S(=O)(c1ccccc1)N(CC(F)(F)F)c1ccc(C(O)(C(F)(F)F)C(F)(F)F)cc1 [T09, reference compound] |  | bound to LXRα and LXRβ with similar affinity | no cytotoxic effects | increased expression of LXRα target genes | significant reduction of LXRα and ABCA1 expression | activated | comparably up-regulated | transcriptionally induced | significant reduction of total and esterified cholesterol content | increased triglyceride levels | stayed unchanged |
